Measured values taken from ChEMBL document CHEMBL5303761, “Data for DCP probe BI-3231” (2023).

How the values were obtained:
[1] = biological target: Kappa-type opioid receptor (Homo sapiens) (UniProt P41145); assay: KAPPA(KOP)_HU Eurofins SafetyScreen44 (BI); settings: Compound concentration 10.0 uM
[2] = biological target: 5-hydroxytryptamine receptor 2B (Homo sapiens) (UniProt P41595); assay: 5HT2B/H AG Eurofins SafetyScreen44 (BI); settings: filed as agonist, Compound concentration 10.0 uM
[3] = biological target: T1, 5-hydroxytryptamine receptor 3A (Homo sapiens) (UniProt P46098); assay: 5HT3/H Eurofins SafetyScreen44 (BI); settings: Compound concentration 10.0 uM
T1 sequence (whole entry): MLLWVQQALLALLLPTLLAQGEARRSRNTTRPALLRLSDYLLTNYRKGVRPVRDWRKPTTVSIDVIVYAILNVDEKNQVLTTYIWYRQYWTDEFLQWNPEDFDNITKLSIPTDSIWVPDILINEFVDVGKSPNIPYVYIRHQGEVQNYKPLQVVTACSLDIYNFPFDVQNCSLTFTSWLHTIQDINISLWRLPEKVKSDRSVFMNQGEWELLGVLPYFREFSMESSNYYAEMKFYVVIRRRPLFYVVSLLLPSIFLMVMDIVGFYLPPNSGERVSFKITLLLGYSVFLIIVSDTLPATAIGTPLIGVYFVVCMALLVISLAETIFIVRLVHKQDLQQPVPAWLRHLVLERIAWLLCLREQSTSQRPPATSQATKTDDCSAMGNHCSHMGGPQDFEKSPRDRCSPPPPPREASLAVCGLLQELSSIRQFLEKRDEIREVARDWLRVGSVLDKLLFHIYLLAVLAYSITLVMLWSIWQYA

[4] = biological target: D(1A) dopamine receptor (Homo sapiens) (UniProt P21728); assay: D1/H Eurofins SafetyScreen44 (BI); settings: filed as antagonist, Compound concentration 10.0 uM
[5] = biological target: Histamine H2 receptor (Homo sapiens) (UniProt P25021); assay: H2/APT/HS Eurofins SafetyScreen44 (BI); settings: filed as antagonist, Compound concentration 10.0 uM
Sequence of Histamine H2 receptor (Homo sapiens) (P25021 whole entry): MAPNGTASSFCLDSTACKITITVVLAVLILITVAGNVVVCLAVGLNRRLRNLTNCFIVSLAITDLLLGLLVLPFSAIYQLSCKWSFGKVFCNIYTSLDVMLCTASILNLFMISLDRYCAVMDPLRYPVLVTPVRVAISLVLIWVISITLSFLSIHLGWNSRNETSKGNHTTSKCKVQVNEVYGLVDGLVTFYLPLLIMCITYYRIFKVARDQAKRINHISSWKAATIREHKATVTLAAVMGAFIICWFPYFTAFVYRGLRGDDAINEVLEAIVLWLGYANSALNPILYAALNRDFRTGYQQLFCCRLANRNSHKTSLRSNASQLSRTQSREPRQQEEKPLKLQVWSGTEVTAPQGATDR

[6] = biological target: voltage-dependent K+ channel (stored as IKs; KCNQ1/KCNE1) (Rattus norvegicus, UniProt P15383+Q9Z0N7); assay: K+/VOLT/RA Eurofins SafetyScreen44 (BI); assay type: protein-complex assay; settings: rat brain, probe [125I]alpha-dendrotoxin, compound concentration 10 uM, read-out: % Ctrl
[7] = biological target: T2, Muscarinic acetylcholine receptor M1 (Homo sapiens) (UniProt P11229); assay: M1/H Eurofins SafetyScreen44 (BI); settings: Compound concentration 10.0 uM
T2 sequence (whole entry): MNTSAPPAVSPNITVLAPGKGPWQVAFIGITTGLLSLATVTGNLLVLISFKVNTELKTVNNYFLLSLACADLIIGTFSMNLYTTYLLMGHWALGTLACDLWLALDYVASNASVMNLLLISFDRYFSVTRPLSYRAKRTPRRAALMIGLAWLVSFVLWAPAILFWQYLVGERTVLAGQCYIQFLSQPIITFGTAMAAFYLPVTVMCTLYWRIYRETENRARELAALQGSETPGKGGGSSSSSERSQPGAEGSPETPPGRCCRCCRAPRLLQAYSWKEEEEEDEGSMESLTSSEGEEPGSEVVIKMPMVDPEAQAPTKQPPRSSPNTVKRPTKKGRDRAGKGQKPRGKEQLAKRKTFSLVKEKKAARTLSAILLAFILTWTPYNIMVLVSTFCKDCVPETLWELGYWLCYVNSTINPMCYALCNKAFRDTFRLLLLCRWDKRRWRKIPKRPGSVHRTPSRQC

[8] = biological target: T3, Muscarinic acetylcholine receptor M2 (Homo sapiens) (UniProt P08172); assay: M2/H Eurofins SafetyScreen44 (BI); settings: filed as antagonist, Compound concentration 10.0 uM
T3 sequence (whole entry): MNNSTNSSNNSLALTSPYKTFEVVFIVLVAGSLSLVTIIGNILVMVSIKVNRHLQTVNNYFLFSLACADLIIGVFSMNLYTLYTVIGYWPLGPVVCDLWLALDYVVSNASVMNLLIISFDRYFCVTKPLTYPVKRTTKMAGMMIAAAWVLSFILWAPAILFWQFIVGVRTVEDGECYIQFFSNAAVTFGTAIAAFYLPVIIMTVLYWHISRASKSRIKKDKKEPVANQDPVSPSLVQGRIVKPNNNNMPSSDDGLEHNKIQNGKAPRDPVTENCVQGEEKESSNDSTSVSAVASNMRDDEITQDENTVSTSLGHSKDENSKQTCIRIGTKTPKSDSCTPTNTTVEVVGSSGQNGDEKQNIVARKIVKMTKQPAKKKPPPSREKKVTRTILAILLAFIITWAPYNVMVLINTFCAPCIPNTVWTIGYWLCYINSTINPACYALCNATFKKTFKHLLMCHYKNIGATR

[9] = biological target: voltage-gated Na+ channel (site 2) (Rattus norvegicus, UniProt F1LQQ7+O08562+O88420+O88457+P04774+P04775+P08104+P15389+P15390+Q62968); assay: NA+/SITE2/R Eurofins SafetyScreen44 (BI); assay type: protein assay; settings: rat brain, probe [3H]batrachotoxinin, compound concentration 10 uM, read-out: % Ctrl
[10] = biological target: Neuronal acetylcholine receptor; alpha4/beta2 (Homo sapiens) (UniProt P17787+P43681); assay: N_NEURO_A4B2 Eurofins SafetyScreen44 (BI); assay type: protein-complex assay; settings: filed as agonist, Compound concentration 10.0 uM
[11] = biological target: Sodium-dependent serotonin transporter (Homo sapiens) (UniProt P31645); assay: SLC6A4/H Eurofins SafetyScreen44 (BI); settings: filed as antagonist, Compound concentration 10.0 uM
[12] = biological target: Vasopressin V1a receptor (Homo sapiens) (UniProt P37288); assay: V1A/HUM Eurofins SafetyScreen44 (BI); settings: Compound concentration 10.0 uM
[13] = biological target: 5-hydroxytryptamine receptor 1D (Homo sapiens) (UniProt P28221); settings: Compound concentration 10.0 uM
Sequence of 5-hydroxytryptamine receptor 1D (Homo sapiens) (P28221 whole entry): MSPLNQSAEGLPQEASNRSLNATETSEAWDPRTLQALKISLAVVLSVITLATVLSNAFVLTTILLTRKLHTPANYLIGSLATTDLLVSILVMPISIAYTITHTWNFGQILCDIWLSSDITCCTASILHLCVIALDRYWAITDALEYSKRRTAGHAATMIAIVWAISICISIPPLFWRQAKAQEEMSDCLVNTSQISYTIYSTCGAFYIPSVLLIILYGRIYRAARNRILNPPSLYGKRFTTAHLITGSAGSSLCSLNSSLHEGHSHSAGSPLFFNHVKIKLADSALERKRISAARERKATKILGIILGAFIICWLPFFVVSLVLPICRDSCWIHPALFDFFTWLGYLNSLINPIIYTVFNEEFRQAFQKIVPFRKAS

[14] = biological target: T1, 5-hydroxytryptamine receptor 3A (Homo sapiens); settings: Compound concentration 10.0 uM
[15] = biological target: 5-hydroxytryptamine receptor 5A (Homo sapiens) (UniProt P47898); settings: Compound concentration 10.0 uM
Sequence of 5-hydroxytryptamine receptor 5A (Homo sapiens) (P47898 whole entry): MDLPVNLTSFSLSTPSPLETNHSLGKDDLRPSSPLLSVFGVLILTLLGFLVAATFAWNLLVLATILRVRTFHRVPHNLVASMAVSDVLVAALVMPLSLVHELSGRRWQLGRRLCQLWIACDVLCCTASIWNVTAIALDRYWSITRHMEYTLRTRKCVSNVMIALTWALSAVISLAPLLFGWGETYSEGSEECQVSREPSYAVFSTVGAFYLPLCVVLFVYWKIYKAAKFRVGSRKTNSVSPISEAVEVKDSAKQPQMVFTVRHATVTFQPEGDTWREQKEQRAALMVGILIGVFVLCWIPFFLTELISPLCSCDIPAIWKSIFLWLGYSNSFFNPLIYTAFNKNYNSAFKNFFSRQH

[16] = biological target: 5-hydroxytryptamine receptor 7 (Homo sapiens) (UniProt P34969); settings: Compound concentration 10.0 uM
Sequence of 5-hydroxytryptamine receptor 7 (Homo sapiens) (P34969 whole entry): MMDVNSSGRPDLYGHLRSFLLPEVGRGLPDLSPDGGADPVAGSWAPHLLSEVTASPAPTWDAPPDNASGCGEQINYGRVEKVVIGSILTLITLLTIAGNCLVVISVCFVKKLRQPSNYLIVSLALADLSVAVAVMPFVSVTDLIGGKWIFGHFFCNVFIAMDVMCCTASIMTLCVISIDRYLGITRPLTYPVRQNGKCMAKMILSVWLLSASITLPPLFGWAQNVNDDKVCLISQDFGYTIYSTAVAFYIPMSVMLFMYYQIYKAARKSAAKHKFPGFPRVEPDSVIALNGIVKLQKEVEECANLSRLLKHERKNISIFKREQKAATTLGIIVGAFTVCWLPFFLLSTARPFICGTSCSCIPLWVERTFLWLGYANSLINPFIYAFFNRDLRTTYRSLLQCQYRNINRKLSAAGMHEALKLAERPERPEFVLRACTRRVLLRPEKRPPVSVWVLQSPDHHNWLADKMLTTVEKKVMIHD

[17] = biological target: D(4) dopamine receptor (Homo sapiens) (UniProt P21917); settings: Compound concentration 10.0 uM
Sequence of D(4) dopamine receptor (Homo sapiens) (P21917 whole entry): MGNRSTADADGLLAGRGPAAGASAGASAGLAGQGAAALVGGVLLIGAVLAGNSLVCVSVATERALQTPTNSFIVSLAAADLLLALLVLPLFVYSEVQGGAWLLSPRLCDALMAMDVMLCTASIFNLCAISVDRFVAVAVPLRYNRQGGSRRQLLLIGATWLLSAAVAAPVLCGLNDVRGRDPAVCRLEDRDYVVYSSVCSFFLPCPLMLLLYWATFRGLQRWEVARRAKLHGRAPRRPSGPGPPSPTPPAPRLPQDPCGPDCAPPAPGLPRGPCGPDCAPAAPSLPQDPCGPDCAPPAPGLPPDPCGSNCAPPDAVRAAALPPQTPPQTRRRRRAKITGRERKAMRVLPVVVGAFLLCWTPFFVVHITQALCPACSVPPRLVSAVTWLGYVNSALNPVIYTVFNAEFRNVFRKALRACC

[18] = biological target: Histamine H1 receptor (Homo sapiens) (UniProt P35367); settings: Compound concentration 10.0 uM
Sequence of Histamine H1 receptor (Homo sapiens) (P35367 whole entry): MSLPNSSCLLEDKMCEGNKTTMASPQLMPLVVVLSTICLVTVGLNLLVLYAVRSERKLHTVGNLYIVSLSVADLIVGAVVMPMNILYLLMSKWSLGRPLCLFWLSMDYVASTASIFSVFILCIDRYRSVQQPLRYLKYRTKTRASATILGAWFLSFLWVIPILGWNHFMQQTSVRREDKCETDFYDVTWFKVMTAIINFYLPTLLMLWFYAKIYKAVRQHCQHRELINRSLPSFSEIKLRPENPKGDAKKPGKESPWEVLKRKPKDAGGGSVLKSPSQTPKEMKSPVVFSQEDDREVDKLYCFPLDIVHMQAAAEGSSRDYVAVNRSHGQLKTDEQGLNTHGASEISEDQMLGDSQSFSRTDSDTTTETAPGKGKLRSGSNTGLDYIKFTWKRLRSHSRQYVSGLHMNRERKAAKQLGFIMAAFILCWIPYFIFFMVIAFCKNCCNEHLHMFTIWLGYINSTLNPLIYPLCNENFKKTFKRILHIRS

[19] = biological target: Histamine H3 receptor (Homo sapiens) (UniProt Q9Y5N1); settings: Compound concentration 10.0 uM
Sequence of Histamine H3 receptor (Homo sapiens) (Q9Y5N1 whole entry): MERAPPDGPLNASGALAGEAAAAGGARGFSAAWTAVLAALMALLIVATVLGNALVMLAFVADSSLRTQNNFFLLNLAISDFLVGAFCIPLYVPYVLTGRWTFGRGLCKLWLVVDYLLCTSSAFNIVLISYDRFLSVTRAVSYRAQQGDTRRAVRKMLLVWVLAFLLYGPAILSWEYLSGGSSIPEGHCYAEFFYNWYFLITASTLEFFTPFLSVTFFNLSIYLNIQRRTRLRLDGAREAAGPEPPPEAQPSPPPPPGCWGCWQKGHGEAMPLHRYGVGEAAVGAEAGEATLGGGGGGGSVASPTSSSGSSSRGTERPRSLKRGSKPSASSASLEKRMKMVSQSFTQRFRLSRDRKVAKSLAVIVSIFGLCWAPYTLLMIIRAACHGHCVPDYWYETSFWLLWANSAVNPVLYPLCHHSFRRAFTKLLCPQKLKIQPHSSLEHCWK

[20] = biological target: Alpha-2C adrenergic receptor (Homo sapiens) (UniProt P18825); settings: Compound concentration 10.0 uM
Sequence of Alpha-2C adrenergic receptor (Homo sapiens) (P18825 whole entry): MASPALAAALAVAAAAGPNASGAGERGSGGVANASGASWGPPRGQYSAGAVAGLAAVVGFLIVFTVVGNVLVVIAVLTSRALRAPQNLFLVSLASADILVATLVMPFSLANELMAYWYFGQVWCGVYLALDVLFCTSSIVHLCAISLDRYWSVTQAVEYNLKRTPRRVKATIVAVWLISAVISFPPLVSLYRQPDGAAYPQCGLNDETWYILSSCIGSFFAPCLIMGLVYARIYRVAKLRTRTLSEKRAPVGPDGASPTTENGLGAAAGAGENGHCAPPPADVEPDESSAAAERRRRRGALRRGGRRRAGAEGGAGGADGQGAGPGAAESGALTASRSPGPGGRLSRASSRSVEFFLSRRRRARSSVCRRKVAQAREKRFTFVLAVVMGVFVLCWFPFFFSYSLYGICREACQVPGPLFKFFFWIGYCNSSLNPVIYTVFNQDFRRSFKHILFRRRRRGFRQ

[21] = biological target: Muscarinic acetylcholine receptor M5 (Homo sapiens) (UniProt P08912); settings: Compound concentration 10.0 uM
Sequence of Muscarinic acetylcholine receptor M5 (Homo sapiens) (P08912 whole entry): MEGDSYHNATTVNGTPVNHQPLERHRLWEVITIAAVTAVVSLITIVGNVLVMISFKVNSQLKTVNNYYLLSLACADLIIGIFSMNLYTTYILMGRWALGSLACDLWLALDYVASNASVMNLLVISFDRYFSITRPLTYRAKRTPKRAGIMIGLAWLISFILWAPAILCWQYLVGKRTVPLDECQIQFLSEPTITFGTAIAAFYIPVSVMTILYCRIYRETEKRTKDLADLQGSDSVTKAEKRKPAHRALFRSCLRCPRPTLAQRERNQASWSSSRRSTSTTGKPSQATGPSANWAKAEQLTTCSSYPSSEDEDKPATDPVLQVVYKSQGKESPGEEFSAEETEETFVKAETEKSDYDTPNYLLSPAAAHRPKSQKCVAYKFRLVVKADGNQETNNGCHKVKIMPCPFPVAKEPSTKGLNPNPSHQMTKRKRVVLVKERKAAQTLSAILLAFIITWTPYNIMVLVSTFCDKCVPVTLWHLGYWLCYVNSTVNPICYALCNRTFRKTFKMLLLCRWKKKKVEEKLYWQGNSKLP

[22] = biological target: GABA-A receptor; anion channel (Rattus norvegicus) (UniProt O09028+P15431+P18506+P18508+P19969+P20236+P23574+P23576+P28471+P28473+P30191+P62813+P63079+P63138+Q91ZM7+Q9ES14); settings: Compound concentration 10.0 uM

Sequence of Kappa-type opioid receptor (Homo sapiens) (P41145 whole entry): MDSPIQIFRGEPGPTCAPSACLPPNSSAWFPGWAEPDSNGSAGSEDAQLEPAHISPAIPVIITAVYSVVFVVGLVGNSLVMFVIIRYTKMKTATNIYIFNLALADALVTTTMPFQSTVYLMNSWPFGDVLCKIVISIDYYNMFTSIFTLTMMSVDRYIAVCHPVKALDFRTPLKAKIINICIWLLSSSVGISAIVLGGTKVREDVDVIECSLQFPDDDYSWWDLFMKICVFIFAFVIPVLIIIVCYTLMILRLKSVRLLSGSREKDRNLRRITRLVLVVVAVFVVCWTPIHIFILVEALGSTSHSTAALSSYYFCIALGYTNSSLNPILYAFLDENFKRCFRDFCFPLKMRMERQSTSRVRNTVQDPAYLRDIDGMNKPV
Sequence of 5-hydroxytryptamine receptor 2B (Homo sapiens) (P41595 whole entry): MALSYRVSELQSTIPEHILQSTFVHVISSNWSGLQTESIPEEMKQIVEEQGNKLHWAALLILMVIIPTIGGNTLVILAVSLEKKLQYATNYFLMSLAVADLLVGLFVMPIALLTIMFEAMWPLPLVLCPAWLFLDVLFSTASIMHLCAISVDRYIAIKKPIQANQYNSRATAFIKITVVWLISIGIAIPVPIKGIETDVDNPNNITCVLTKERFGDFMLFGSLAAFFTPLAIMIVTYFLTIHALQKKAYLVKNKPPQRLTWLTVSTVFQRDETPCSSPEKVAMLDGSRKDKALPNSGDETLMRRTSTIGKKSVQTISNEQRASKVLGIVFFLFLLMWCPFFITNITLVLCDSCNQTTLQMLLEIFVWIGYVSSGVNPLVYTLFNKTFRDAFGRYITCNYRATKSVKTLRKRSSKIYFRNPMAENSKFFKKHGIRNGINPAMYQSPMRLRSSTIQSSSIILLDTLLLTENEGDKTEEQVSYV

CCn1c(=O)c(C)cn(Cc2nnc(-c3ccc(F)c(O)c3F)s2)c1=O
73% (not active): activity at 10 µM [9]
inactive: residual activity [1] 94% | residual activity [2] 83% | residual activity [3] 106% | residual activity [4] 105% | residual activity [5] 105% | residual activity [7] 99% | residual activity [8] 106% | residual activity [10] 109% | residual activity [11] 106% | residual activity [12] 100% | inhibition [13] 6.08% | inhibition [14] 10.6% | inhibition [15] 4.72% | inhibition [16] 5.8% | inhibition [17] 9.62% | inhibition [18] 8.66% | inhibition [19] 0.98% | inhibition [20] 1.31% | inhibition [21] -6.35% | inhibition [22] 27.6%
103% (not active): activity at 10 µM [6]

CCn1c(=O)c(C)cn(Cc2nnc(-c3ccc(F)c(OC)c3F)s2)c1=O
88% (not active): activity at 10 µM [9]
active: residual activity [2] 45%
104% (not active): activity at 10 µM [6]
inactive: residual activity [1] 110% | residual activity [3] 98% | residual activity [4] 97% | residual activity [5] 107% | residual activity [7] 100% | residual activity [8] 113% | residual activity [10] 107% | residual activity [11] 97% | residual activity [12] 103% | inhibition [13] 15.8% | inhibition [14] 7.41% | inhibition [15] 8.13% | inhibition [16] -1.29% | inhibition [17] 2.36% | inhibition [18] -3.42% | inhibition [19] 11% | inhibition [20] 2.05% | inhibition [21] 0.59% | inhibition [22] 19.9%
